This note sets out measurements from US20250143990A1, “SKIN MICROBIOME FRIENDLY SUNSCREENS” (BASF SE, priority 2022, published 2025).

The data set in a line: Solubility in water. Format: physicochemical.

Turning to `CC(C)(C)CC(C)(C)c1cc(Cc2cc(C(C)(C)CC(C)(C)C)cc(-n3nc4ccccc4n3)c2O)c(O)c(-n2nc3ccccc3n2)c1` [2,2′-methylene bis[6-(2H-benzotriazol-2-yl)-4-(1,1,3,3-tetramethylbutyl)phenol]], the solubility in water entry is on record as “ng/L range”.
